Measured values taken from publication PMC12693396, “Discovery of Influenza Neuraminidase Inhibitors: Structure-Based Virtual Screening and Biological Evaluation of Novel Chemotypes” (Molecules, 2025).
pIC50: −log10 of the molar value.

Tests used:
[1] = target: recombinant Influenza A H1N1 (A/California/04/2009) neuraminidase (Influenza A virus (A/California/04/2009(H1N1)), UniProt C3W5S3); test: Fluorometric MUNANA neuraminidase inhibition assay (NA-Fluor kit); format: biochemical
in vitro = settings: human

| SMILES | CC50 at 24 h (in vitro) [µM] | other results |
| --- | --- | --- |
| O=C(O)C1CCCN(C(=O)c2c[nH]c3ccccc23)C1 (stereo not shown) [Compound 1, 1-(1H-Indol-3-ylcarbonyl)-3-piperidinecarboxylic acid] | – | pIC50 [1]: < 3.00; inhibition at 100 µM ([1]; read-out: mean inhibition of NA activity, at 100 µM): > 15% |
| O=C(O)CCC(=O)c1c[nH]c2ccccc12 [Compound 3, γ-Oxo-1H-indole-3-butanoic acid] | 671 | – |
| COc1cccc2[nH]cc(C(=O)O)c12 [Compound 4, 4-Methoxy-1H-indole-3-carboxylic acid] | 244 | – |
| COc1ccc([C@H]2[C@@H](C(=O)O)c3ccccc3C(=O)N2Cc2ccc(Cl)cc2)cc1 [Compound 5, (3R,4S)-2-[(4-Chlorophenyl)methyl]-1,2,3,4-tetrahydro-3-(4-methoxyphenyl)-1-oxo-4-isoquinolinecarboxylic acid] | 152 | – |
| COc1cc2c(cc1OC)C(C(C)C)N(S(N)(=O)=O)CC2 (stereo not shown) [Compound 6, 3,4-Dihydro-6,7-dimethoxy-1-(1-methylethyl)-2(1H)-isoquinolinesulfonamide] | 534 | – |
| CCOC(=O)C1=C[C@@H](OC(CC)CC)[C@H](NC(C)=O)[C@@H](N)C1 [oseltamivir, Oseltamivir phosphate, reference compound] | – | inhibition of NA activity ([1]; 0.1 µM): approximately 20% |
